Experimental data taken from ChEMBL document CHEMBL2440076, “New triarylpyrazoles as broad-spectrum anticancer agents: design, synthesis, and biological evaluation” (Eur J Med Chem, 2013).

Experiments:
Type in all cases: functional
HCT-116 = test: Growth inhibition of human HCT116 cells assessed as cell growth at 5X10'-9 M after 48 hrs by sulforhodamine B assay; details: HCT-116, 48 h, read-out: Activity
M14 = test: Growth inhibition of human M14 cells assessed as cell growth at 5X10'-5 M after 48 hrs by sulforhodamine B assay; details: M14, 48 h, read-out: Activity
SNB-19 = test: Growth inhibition of human SNB19 cells assessed as cell growth at 5X10'-5 M after 48 hrs by sulforhodamine B assay; details: SNB-19, 48 h, read-out: Activity
SF-295 = test: Growth inhibition of human SF295 cells assessed as cell growth at 5X10'-5 M after 48 hrs by sulforhodamine B assay; details: SF-295, 48 h, read-out: Activity
SR = test: Growth inhibition of human SR cells assessed as cell growth at 5X10'-5 M after 48 hrs by sulforhodamine B assay; details: read-out: Activity
T47D = test: Growth inhibition of human T47D cells assessed as cell growth at 5X10'-6 M after 48 hrs by sulforhodamine B assay; details: read-out: Activity
RXF 393 = test: Growth inhibition of human RXF393 cells assessed as cell growth at 5X10'-6 M after 48 hrs by sulforhodamine B assay; details: RXF 393, 48 h, read-out: Activity
CAKI-1 [1] = test: Growth inhibition of human CAKI-1 cells assessed as cell growth at 5X10'-6 M after 48 hrs by sulforhodamine B assay; details: CAKI-1, 48 h, read-out: Activity
OVCAR-5 [2] = test: Growth inhibition of human OVCAR5 cells assessed as cell growth at 5X10'-6 M after 48 hrs by sulforhodamine B assay; details: OVCAR-5, 48 h, read-out: Activity
SK-MEL-5 = test: Growth inhibition of human SK-MEL-5 cells assessed as cell growth at 5X10'-6 M after 48 hrs by sulforhodamine B assay; details: SK-MEL-5, 48 h, read-out: Activity
NCI-H23 = test: Growth inhibition of human NCI-H23 cells assessed as cell growth at 5X10'-9 M after 48 hrs by sulforhodamine B assay; details: NCI-H23, 48 h, read-out: Activity
A549 = test: Growth inhibition of human A549/ATCC cells assessed as cell growth at 5X10'-9 M after 48 hrs by sulforhodamine B assay; details: A549, 48 h, read-out: Activity
SF-539 = test: Growth inhibition of human SF539 cells assessed as cell growth at 5X10'-6 M after 48 hrs by sulforhodamine B assay; details: SF-539, 48 h, read-out: Activity
SW-620 = test: Growth inhibition of human SW620 cells assessed as cell growth at 5X10'-6 M after 48 hrs by sulforhodamine B assay; details: SW-620, 48 h, read-out: Activity
HCT-15 = test: Growth inhibition of human HCT15 cells assessed as cell growth at 5X10'-6 M after 48 hrs by sulforhodamine B assay; details: HCT-15, 48 h, read-out: Activity
NCI-H322M = test: Growth inhibition of human NCI-H322M cells assessed as cell growth at 5X10'-6 M after 48 hrs by sulforhodamine B assay; details: read-out: Activity
HOP-92 = test: Growth inhibition of human HOP92 cells assessed as cell growth at 5X10'-6 M after 48 hrs by sulforhodamine B assay; details: HOP-92, 48 h, read-out: Activity
RPMI-8226 = test: Growth inhibition of human RPMI8226 cells assessed as cell growth at 5X10'-6 M after 48 hrs by sulforhodamine B assay; details: RPMI-8226, 48 h, read-out: Activity
CCRF-CEM [3] = test: Growth inhibition of human CCRF-CEM cells assessed as cell growth at 5X10'-6 M after 48 hrs by sulforhodamine B assay; details: read-out: Activity
PC-3 = test: Growth inhibition of human PC3 cells assessed as cell growth at 5X10'-7 M after 48 hrs by sulforhodamine B assay; details: PC-3, 48 h, read-out: Activity
SN12C = test: Growth inhibition of human SN12C cells assessed as cell growth at 5X10'-7 M after 48 hrs by sulforhodamine B assay; details: read-out: Activity
OVCAR-3 = test: Growth inhibition of human OVCAR3 cells assessed as cell growth at 5X10'-7 M after 48 hrs by sulforhodamine B assay; details: OVCAR-3, 48 h, read-out: Activity
SK-MEL-2 = test: Growth inhibition of human SK-MEL-2 cells assessed as cell growth at 5X10'-7 M after 48 hrs by sulforhodamine B assay; details: SK-MEL-2, 48 h, read-out: Activity
MCF7 [4] = test: Growth inhibition of human MCF7 cells assessed as cell growth at 5X10'-8 M after 48 hrs by sulforhodamine B assay; details: MCF7, 48 h, read-out: Activity
TK-10 = test: Growth inhibition of human TK10 cells assessed as cell growth at 5X10'-8 M after 48 hrs by sulforhodamine B assay; details: TK-10, 48 h, read-out: Activity
MCF7 [5] = test: Growth inhibition of human MCF7 cells assessed as cell growth at 5X10'-5 M after 48 hrs by sulforhodamine B assay; details: MCF7, 48 h, read-out: Activity
CAKI-1 [6] = test: Growth inhibition of human CAKI-1 cells assessed as cell growth at 5X10'-5 M after 48 hrs by sulforhodamine B assay; details: CAKI-1, 48 h, read-out: Activity
IGROV-1 = test: Growth inhibition of human IGROV1 cells assessed as cell growth at 5X10'-5 M after 48 hrs by sulforhodamine B assay; details: IGROV-1, 48 h, read-out: Activity
COLO 205 = test: Growth inhibition of human COLO205 cells assessed as cell growth at 5X10'-8 M after 48 hrs by sulforhodamine B assay; details: COLO 205, 48 h, read-out: Activity
CCRF-CEM [7] = test: Growth inhibition of human CCRF-CEM cells assessed as cell growth at 5X10'-8 M after 48 hrs by sulforhodamine B assay; details: read-out: Activity
BT-549 = test: Growth inhibition of human BT549 cells assessed as cell growth at 5X10'-9 M after 48 hrs by sulforhodamine B assay; details: BT-549, 48 h, read-out: Activity
SK-OV-3 = test: Growth inhibition of human SKOV3 cells assessed as cell growth at 5X10'-9 M after 48 hrs by sulforhodamine B assay; details: SK-OV-3, 48 h, read-out: Activity
OVCAR-5 [8] = test: Growth inhibition of human OVCAR5 cells assessed as cell growth at 5X10'-9 M after 48 hrs by sulforhodamine B assay; details: OVCAR-5, 48 h, read-out: Activity
UACC-62 = test: Growth inhibition of human UACC62 cells assessed as cell growth at 5X10'-9 M after 48 hrs by sulforhodamine B assay; details: UACC-62, 48 h, read-out: Activity
UACC-257 = test: Growth inhibition of human UACC257 cells assessed as cell growth at 5X10'-9 M after 48 hrs by sulforhodamine B assay; details: UACC-257, 48 h, read-out: Activity
U-251 = test: Growth inhibition of human U251 cells assessed as cell growth at 5X10'-9 M after 48 hrs by sulforhodamine B assay; details: U-251, 48 h, read-out: Activity

SMILES | growth at 0.005 µM (HCT-116) [%] | growth at 50 µM (M14) [%] | growth at 50 µM (SNB-19) [%] | growth at 50 µM (SF-295) [%] | growth at 50 µM (SR) [%] | growth at 5 µM (T47D) [%] | growth at 5 µM (RXF 393) [%] | growth at 5 µM (CAKI-1 [1]) [%] | growth at 5 µM (OVCAR-5 [2]) [%] | growth at 5 µM (SK-MEL-5) [%] | growth at 0.005 µM (NCI-H23) [%] | growth at 0.005 µM (A549) [%] | growth at 5 µM (SF-539) [%] | growth at 5 µM (SW-620) [%] | growth at 5 µM (HCT-15) [%] | growth at 5 µM (NCI-H322M) [%] | growth at 5 µM (HOP-92) [%] | growth at 5 µM (RPMI-8226) [%] | growth at 5 µM (CCRF-CEM [3]) [%] | growth at 0.5 µM (PC-3) [%] | also measured
COc1cc(-c2nn(-c3cccc(NC(=O)Nc4ccc(Cl)c(Cl)c4)c3)cc2-c2ccncc2)ccc1Cl | 105 | -52 | 15 | -42 | -26 | 9 | -34 | -13 | 27 | -86 | 97 | 98 | -21 | 11 | 10 | 15 | -40 | -10 | -2 | 53 | growth at 0.5 µM (SN12C): 82%; growth at 0.5 µM (OVCAR-3): 64%; growth at 0.5 µM (SK-MEL-2): 107%; growth at 0.05 µM (MCF7 [4]): 92%; growth at 0.05 µM (TK-10): 103%; growth at 50 µM (MCF7 [5]): 3%; growth at 50 µM (CAKI-1 [6]): -13%; growth at 50 µM (IGROV-1): -26%; growth at 0.05 µM (COLO 205): 112%; growth at 0.05 µM (CCRF-CEM [7]): 98%; growth at 0.005 µM (BT-549): 104%; growth at 0.005 µM (SK-OV-3): 104%; growth at 0.005 µM (OVCAR-5 [8]): 93%; growth at 0.005 µM (UACC-62): 98%; growth at 0.005 µM (UACC-257): 98%; growth at 0.005 µM (U-251): 96%
COc1cc(-c2nn(-c3cccc(NC(=O)Nc4cccc(C(F)(F)F)c4)c3)cc2-c2ccncc2)ccc1Cl | 101 | -64 | -18 | -77 | -16 | 18 | -52 | -14 | 5 | -97 | 96 | 97 | -36 | 5 | 1 | -2 | -45 | -10 | -1 | 44 | growth at 0.5 µM (SN12C): 80%; growth at 0.5 µM (OVCAR-3): 56%; growth at 0.5 µM (SK-MEL-2): 97%; growth at 0.05 µM (MCF7 [4]): 93%; growth at 0.05 µM (TK-10): 93%; growth at 50 µM (MCF7 [5]): -8%; growth at 50 µM (CAKI-1 [6]): -21%; growth at 50 µM (IGROV-1): -43%; growth at 0.05 µM (COLO 205): 98%; growth at 0.05 µM (CCRF-CEM [7]): 102%; growth at 0.005 µM (BT-549): 98%; growth at 0.005 µM (SK-OV-3): 100%; growth at 0.005 µM (OVCAR-5 [8]): 84%; growth at 0.005 µM (UACC-62): 95%; growth at 0.005 µM (UACC-257): 96%; growth at 0.005 µM (U-251): 97%
COc1cc(-c2nn(-c3cccc(NC(=O)Nc4cc(C(F)(F)F)cc(C(F)(F)F)c4)c3)cc2-c2ccncc2)ccc1Cl | 101 | -28 | -40 | -73 | -5 | 10 | -51 | -20 | -36 | -96 | 99 | 96 | -74 | -51 | -57 | -24 | -52 | 3 | -17 | 33 | growth at 0.5 µM (SN12C): 75%; growth at 0.5 µM (OVCAR-3): 45%; growth at 0.5 µM (SK-MEL-2): 105%; growth at 0.05 µM (MCF7 [4]): 91%; growth at 0.05 µM (TK-10): 98%; growth at 50 µM (MCF7 [5]): -5%; growth at 50 µM (CAKI-1 [6]): -50%; growth at 50 µM (IGROV-1): -54%; growth at 0.05 µM (COLO 205): 102%; growth at 0.05 µM (CCRF-CEM [7]): 94%; growth at 0.005 µM (BT-549): 103%; growth at 0.005 µM (SK-OV-3): 102%; growth at 0.005 µM (OVCAR-5 [8]): 87%; growth at 0.005 µM (UACC-62): 97%; growth at 0.005 µM (UACC-257): 94%; growth at 0.005 µM (U-251): 97%
